ChEMBL document CHEMBL5291721, “A preclinical secondary pharmacology resource illuminates target-adverse drug reaction associations of marketed drugs” (Nat Commun, 2023)

Assays:
[1] = target: Motilin receptor (Homo sapiens, UniProt O43193)
[2] = target: T1, 5-hydroxytryptamine receptor 1A (Homo sapiens, UniProt P08908); format: functional, cell-based
T1 sequence (P08908 whole entry): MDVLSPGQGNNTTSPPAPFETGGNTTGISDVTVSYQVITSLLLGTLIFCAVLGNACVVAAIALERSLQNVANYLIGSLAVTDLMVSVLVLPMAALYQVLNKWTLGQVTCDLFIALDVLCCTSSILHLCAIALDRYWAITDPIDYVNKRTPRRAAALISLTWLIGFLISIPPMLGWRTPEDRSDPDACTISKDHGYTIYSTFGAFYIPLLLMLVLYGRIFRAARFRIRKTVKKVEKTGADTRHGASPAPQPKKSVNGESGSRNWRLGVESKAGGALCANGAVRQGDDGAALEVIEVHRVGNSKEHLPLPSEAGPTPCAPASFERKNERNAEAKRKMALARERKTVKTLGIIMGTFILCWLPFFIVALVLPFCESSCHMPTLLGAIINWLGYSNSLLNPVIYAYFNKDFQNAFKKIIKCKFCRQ

[3] = target: T2, Prostaglandin G/H synthase 1 (Rattus norvegicus, UniProt Q63921); format: functional
T2 sequence (Q63921 whole entry): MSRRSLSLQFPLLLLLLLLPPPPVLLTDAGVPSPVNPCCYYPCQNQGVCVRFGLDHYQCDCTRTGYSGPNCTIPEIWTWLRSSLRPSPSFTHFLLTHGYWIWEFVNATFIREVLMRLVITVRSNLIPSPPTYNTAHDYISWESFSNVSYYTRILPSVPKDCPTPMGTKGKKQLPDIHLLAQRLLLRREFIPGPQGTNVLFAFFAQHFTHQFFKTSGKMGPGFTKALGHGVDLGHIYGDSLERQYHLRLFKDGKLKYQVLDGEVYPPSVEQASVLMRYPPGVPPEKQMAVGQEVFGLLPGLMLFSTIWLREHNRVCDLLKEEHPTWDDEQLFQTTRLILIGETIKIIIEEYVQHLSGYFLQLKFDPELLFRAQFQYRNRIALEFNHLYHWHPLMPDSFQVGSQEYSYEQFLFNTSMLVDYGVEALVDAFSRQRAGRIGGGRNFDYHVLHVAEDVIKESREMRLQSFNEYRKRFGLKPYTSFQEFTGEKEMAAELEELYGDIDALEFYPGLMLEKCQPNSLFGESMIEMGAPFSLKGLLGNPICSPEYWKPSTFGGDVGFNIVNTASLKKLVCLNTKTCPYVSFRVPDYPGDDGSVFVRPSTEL

[4] = target: 3',5'-cyclic-AMP phosphodiesterase 4D (Homo sapiens, UniProt Q08499); format: functional
[5] = target: Melanocortin receptor 3 (Homo sapiens, UniProt P41968)
[6] = target: T3, Muscarinic acetylcholine receptor M2 (Homo sapiens, UniProt P08172); format: functional, cell-based
T3 sequence (P08172 whole entry): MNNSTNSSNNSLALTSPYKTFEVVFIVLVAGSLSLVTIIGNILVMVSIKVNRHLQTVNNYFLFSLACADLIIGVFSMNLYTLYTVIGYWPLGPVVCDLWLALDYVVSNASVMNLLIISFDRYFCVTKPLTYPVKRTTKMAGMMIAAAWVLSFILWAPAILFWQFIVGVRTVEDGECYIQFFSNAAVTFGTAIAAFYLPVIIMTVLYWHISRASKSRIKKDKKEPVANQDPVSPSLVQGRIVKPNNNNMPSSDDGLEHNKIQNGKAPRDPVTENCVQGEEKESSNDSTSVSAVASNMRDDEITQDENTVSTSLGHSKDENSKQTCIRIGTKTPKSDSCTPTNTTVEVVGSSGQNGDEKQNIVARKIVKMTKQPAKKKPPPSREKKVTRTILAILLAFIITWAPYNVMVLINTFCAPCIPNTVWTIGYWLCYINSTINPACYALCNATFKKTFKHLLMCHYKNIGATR

[7] = target: T4, Type-1 angiotensin II receptor (Homo sapiens, UniProt P30556)
T4 sequence (P30556 whole entry): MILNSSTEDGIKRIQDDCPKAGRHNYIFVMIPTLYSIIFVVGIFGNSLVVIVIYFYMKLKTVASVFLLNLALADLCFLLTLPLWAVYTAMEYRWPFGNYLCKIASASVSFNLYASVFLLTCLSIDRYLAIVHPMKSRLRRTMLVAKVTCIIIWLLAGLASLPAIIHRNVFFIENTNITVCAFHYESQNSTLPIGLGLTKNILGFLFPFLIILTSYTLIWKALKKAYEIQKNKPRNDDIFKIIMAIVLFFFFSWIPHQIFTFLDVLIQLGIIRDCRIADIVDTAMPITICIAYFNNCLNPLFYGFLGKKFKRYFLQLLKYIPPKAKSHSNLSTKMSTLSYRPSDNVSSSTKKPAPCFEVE

[8] = target: Neuronal acetylcholine receptor subunit alpha-4 (Homo sapiens, UniProt P43681)
[9] = target: T5, Amine oxidase [flavin-containing] A (Homo sapiens, UniProt P21397); format: functional
T5 sequence (P21397 whole entry): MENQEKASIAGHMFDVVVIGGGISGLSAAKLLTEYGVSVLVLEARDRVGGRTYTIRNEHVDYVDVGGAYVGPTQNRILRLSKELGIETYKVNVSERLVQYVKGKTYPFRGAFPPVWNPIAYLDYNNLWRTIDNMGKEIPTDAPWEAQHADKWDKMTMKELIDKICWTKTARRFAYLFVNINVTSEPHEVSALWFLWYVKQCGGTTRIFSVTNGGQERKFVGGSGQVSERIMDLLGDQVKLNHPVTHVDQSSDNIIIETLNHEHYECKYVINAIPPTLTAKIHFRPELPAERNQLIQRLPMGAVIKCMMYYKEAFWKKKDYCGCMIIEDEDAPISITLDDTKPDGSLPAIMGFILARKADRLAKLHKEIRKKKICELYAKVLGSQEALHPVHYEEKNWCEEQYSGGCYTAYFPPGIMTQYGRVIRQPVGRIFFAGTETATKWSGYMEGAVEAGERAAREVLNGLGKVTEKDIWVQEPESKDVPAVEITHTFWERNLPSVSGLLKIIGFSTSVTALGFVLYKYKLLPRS
Also: assay procedure not described here.

3',5'-cyclic-AMP phosphodiesterase 4D, sequence (Q08499 whole entry): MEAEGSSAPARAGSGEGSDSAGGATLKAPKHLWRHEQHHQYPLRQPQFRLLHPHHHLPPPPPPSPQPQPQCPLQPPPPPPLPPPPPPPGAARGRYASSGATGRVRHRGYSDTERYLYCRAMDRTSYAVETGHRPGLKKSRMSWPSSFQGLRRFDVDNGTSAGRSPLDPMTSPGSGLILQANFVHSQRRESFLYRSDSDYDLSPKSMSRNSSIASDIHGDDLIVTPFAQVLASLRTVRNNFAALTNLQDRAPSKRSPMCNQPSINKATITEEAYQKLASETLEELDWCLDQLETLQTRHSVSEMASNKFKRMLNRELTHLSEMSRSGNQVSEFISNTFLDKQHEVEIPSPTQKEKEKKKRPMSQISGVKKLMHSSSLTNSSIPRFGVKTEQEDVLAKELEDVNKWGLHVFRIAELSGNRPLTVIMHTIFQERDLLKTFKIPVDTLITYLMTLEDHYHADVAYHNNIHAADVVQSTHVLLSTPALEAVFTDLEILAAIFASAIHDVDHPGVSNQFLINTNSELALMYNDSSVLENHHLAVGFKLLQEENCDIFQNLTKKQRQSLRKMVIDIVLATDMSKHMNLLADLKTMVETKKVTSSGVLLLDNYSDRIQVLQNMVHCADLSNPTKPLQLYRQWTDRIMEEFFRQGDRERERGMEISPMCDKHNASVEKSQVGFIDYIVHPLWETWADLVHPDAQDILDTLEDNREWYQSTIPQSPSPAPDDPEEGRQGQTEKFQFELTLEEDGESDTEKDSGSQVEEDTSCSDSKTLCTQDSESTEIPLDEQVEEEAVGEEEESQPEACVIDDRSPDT
Melanocortin receptor 3, sequence (P41968 whole entry): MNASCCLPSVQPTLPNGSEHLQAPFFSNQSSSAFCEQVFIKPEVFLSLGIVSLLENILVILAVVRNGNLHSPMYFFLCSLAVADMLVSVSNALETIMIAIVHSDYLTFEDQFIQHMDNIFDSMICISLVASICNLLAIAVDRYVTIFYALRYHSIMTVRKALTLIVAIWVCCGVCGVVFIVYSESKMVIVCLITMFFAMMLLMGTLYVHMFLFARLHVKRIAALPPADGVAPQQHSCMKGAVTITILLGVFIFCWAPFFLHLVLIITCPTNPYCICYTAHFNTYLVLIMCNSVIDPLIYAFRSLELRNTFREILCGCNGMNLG
Neuronal acetylcholine receptor subunit alpha-4, sequence (P43681 whole entry): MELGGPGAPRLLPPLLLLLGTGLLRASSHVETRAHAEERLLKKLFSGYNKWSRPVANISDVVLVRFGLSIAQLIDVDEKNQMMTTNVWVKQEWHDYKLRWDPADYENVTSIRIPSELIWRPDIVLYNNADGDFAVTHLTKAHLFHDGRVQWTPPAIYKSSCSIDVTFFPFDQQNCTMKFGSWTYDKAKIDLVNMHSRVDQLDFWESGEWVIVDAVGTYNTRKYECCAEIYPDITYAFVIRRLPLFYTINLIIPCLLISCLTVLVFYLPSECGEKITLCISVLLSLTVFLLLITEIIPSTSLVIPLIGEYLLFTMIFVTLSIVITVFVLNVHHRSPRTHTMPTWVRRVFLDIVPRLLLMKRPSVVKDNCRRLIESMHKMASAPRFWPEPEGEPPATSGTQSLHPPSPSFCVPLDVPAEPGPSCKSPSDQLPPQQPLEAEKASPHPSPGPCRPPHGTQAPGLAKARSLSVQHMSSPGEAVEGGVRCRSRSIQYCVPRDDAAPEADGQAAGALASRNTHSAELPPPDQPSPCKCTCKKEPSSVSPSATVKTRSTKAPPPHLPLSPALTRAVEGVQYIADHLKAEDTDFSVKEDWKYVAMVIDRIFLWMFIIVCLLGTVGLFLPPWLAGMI
Motilin receptor, sequence (O43193 whole entry): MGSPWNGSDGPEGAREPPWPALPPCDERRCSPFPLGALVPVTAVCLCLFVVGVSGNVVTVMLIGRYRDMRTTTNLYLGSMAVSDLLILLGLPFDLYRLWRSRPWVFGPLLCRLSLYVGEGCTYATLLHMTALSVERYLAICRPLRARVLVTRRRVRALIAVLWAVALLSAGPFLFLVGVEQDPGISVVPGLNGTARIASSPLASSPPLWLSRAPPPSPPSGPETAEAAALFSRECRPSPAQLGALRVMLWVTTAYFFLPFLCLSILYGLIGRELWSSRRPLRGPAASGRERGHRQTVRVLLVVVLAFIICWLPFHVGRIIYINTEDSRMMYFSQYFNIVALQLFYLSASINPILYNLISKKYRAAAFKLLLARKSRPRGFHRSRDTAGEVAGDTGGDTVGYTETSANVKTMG

| Structure (SMILES) | AC50 [1] [µM] | AC50 [2] [µM] | AC50 [3] [µM] | AC50 [4] [µM] | AC50 [5] [µM] | AC50 [6] [µM] | AC50 [7] [µM] | AC50 [8] [µM] | AC50 [9] [µM] |
| --- | --- | --- | --- | --- | --- | --- | --- | --- | --- |
| C/N=C(\NC)NCc1ccccc1 [BETHANIDINE] | > 30 | > 30 | > 30 | > 30 | > 30 | > 30 | > 30 | > 30 | > 30 |
| OC1(c2ccc(Cl)cc2)c2ccccc2C2=NCCN21 (stereo unspecified) [MAZINDOL] | > 30 | > 30 | > 30 | > 30 | > 30 | > 30 | > 30 | > 30 | > 30 |
| CC(CCc1ccc(O)cc1)NCCc1ccc(O)c(O)c1 (stereo unspecified) [DOBUTAMINE] | > 30 | > 30 | 5.31 | > 30 | > 30 | > 30 | > 30 | > 30 | > 30 |
| CCCCC1C(=O)N(c2ccccc2)N(c2ccccc2)C1=O [PHENYLBUTAZONE] | > 30 | > 10 | > 10 | > 30 | > 30 | > 10 | > 30 | > 30 | > 10 |
| Clc1ccc(C(Cn2ccnc2)OCc2ccsc2Cl)c(Cl)c1 (stereo unspecified) [TIOCONAZOLE] | > 30 | > 30 | 12.4 | 8.7 | > 30 | > 30 | > 30 | > 30 | > 30 |
| COc1cc(N)c(Cl)cc1C(=O)NC1CCN(Cc2ccccc2)CC1 [CLEBOPRIDE] | > 30 | > 30 | 14 | 2.9 | > 30 | > 30 | > 30 | 24 | > 30 |
| CCC1(c2ccccc2)CCC(=O)NC1=O (stereo unspecified) [GLUTETHIMIDE] | > 10 | > 30 | > 10 | > 30 | > 10 | > 10 | > 10 | > 10 | > 10 |
| Nc1ncn([C@H]2C[C@H](O)[C@@H](CO)O2)c(=O)n1 [DECITABINE] | > 30 | > 30 | > 30 | > 30 | > 30 | > 30 | > 30 | > 30 | > 30 |
| CC12CC3CC(C)(C1)CC(N)(C3)C2 [MEMANTINE] | > 10 | > 10 | > 30 | > 30 | > 30 | > 10 | > 30 | > 10 | > 10 |
| Cc1noc(NS(=O)(=O)c2ccc(N)cc2)c1C [SULFISOXAZOLE] | > 10 | > 10 | > 10 | > 30 | > 10 | > 10 | > 10 | > 10 | > 10 |
| COCC1=C(C(=O)O)N2C(=O)[C@@H](NC(=O)/C(=N\OC)c3csc(N)n3)[C@H]2SC1 [CEFPODOXIME] | > 30 | > 30 | > 30 | > 30 | > 30 | > 30 | > 30 | > 30 | > 30 |
| CCOC(=O)c1cncn1[C@H](C)c1ccccc1 [ETOMIDATE] | > 10 | > 10 | > 10 | > 30 | > 10 | > 10 | > 10 | > 10 | > 10 |
| C[C@]12CCC(=O)C(O)=C1CC[C@@H]1[C@@H]2CC[C@]2(C)C(=O)CC[C@@H]12 [FORMESTANE] | > 30 | > 30 | > 30 | > 30 | > 30 | > 30 | > 30 | > 30 | > 30 |
| CCC(=O)O[C@H]1CC[C@H]2[C@@H]3CCC4=CC(=O)CC[C@]4(C)[C@H]3CC[C@]12C [TESTOSTERONE PROPIONATE] | > 10 | > 10 | > 10 | > 30 | > 10 | > 10 | > 10 | > 10 | > 10 |
| Oc1ccc2c(c1)CC[C@H](c1ccccc1)[C@@H]2c1ccc(OCCN2CCCC2)cc1 [LASOFOXIFENE] | 2.9 | > 30 | 5 | 15 | 11 | 15 | > 30 | > 30 | > 30 |
| CCCCC(=O)O[C@]1(C(=O)CO)[C@@H](C)C[C@H]2[C@@H]3CCC4=CC(=O)C=C[C@]4(C)[C@@]3(F)[C@@H](O)C[C@@]21C [BETAMETHASONE VALERATE] | > 10 | > 30 | > 30 | > 30 | > 30 | > 10 | > 30 | > 10 | > 10 |
| C[C@]12CC[C@@H]3c4ccc(O)cc4C[C@@H](CCCCCCCCC[S+]([O-])CCCC(F)(F)C(F)(F)F)[C@H]3[C@@H]1CC[C@@H]2O (stereo partly specified) [FULVESTRANT] | > 30 | > 30 | > 30 | > 30 | > 30 | > 30 | > 30 | > 30 | > 30 |
| CC(C)NCC(O)c1ccc(O)c(O)c1 (stereo unspecified) [ISOPROTERENOL] | > 10 | > 10 | > 30 | > 30 | > 30 | > 10 | > 30 | > 30 | > 10 |
| CNC1=Nc2ccc(Cl)cc2C(c2ccccc2)=[N+]([O-])C1 [CHLORDIAZEPOXIDE] | > 10 | > 30 | > 30 | > 10 | > 30 | > 10 | > 30 | > 10 | > 10 |
